Experiments:
Assay in all cases: relative viability (nuclei count vs DMSO), 5 days (fraction); higher = more cells survive
[1] = compound: C1=CC(=CC=C1NC(=S)NNC2=C(C=C(C=C2[N+](=O)[O-])C(F)(F)F)[N+](=O)[O-])F [Kobe2602] + Cc1nc(NC(=O)N2CCC[C@H]2C(N)=O)sc1-c1ccnc(C(C)(C)C(F)(F)F)c1 [Alpelisib] (partner 2 µM)
Method in brief: (§1)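 Values are medians from duplicate plates. Each reflects relative viability, defined as the nuclei count of treated wells over that of vehicle wells. Lung cancer cell lines in 1536-well plates were pin-tool dosed one day after seeding with one drug alone or with a fixed anchor-drug dose plus five library-drug doses (not always all listed) in √10 steps, then fixed, stained and imaged at 4× after 5 days.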

[2] = compound: COc1cc2nccc(Oc3ccc(NC(=O)C4(C(=O)Nc5ccc(F)cc5)CC4)cc3)c2cc1OC [Cabozantinib] + CC(=O)Nc1cccc(-n2c(=O)n(C3CC3)c(=O)c3c(Nc4ccc(I)cc4F)n(C)c(=O)c(C)c32)c1 [Trametinib] (partner 0.02 µM)
Method in brief: as §1

[3] = compound: COc1cc2nccc(Oc3ccc(NC(=O)C4(C(=O)Nc5ccc(F)cc5)CC4)cc3)c2cc1OC [Cabozantinib] + O=C(c1cc(Cc2n[nH]c(=O)c3ccccc23)ccc1F)N1CCN(C(=O)C2CC2)CC1 [Olaparib] (partner 8 µM)
Method in brief: as §1

[4] = compound: O[C@@H](COc1cccc2ncccc12)CN1CCN([C@@H]2c3ccccc3[C@@H]3[C@H](c4ccccc42)C3(F)F)CC1 [Zosuquidar] + CS(=O)(=O)CCNCc1ccc(-c2ccc3ncnc(Nc4ccc(OCc5cccc(F)c5)c(Cl)c4)c3c2)o1 [Lapatinib] (partner 2 µM)
Method in brief: as §1

Row | Cell Line | relative viability ([1]; first compound 0.2 µM) | relative viability ([1]; first compound 0.6325 µM) | relative viability ([1]; first compound 2 µM) | relative viability ([1]; first compound 6.325 µM) | relative viability ([1]; first compound 20 µM) | relative viability ([2]; first compound 0.02 µM) | relative viability ([2]; first compound 0.06325 µM) | relative viability ([2]; first compound 0.2 µM) | relative viability ([2]; first compound 0.6325 µM) | relative viability ([2]; first compound 2 µM) | relative viability ([3]; first compound 0.02 µM) | relative viability ([3]; first compound 0.06325 µM) | relative viability ([3]; first compound 0.2 µM) | relative viability ([3]; first compound 0.6325 µM) | relative viability ([3]; first compound 2 µM) | relative viability ([4]; first compound 0.01 µM) | relative viability ([4]; first compound 0.03162 µM) | relative viability ([4]; first compound 0.1 µM) | relative viability ([4]; first compound 0.3162 µM) | relative viability ([4]; first compound 1 µM)
1 | NCI-H2347 | 0.972 | 1.01 | 0.969 | 1.08 | 1.09 | 0.252 | 0.296 | 0.269 | 0.249 | 0.268 | 0.641 | 0.549 | 0.525 | 0.493 | 0.446 | 0.888 | 0.931 | 0.908 | 1.06 | 0.925
2 | NCI-H2405 | 0.748 | 0.94 | 0.721 | 0.896 | 0.831 | 0.658 | 0.666 | 0.615 | 0.59 | 0.473 | 0.859 | 1.01 | 0.931 | 0.899 | 0.804 | 1.17 | 0.971 | 1.15 | 1.24 | 1.11
3 | NCI-H3122 | 0.807 | 0.753 | 0.764 | 0.784 | 0.885 | 0.192 | 0.241 | 0.238 | 0.238 | 0.281 | 0.636 | 0.655 | 0.617 | 0.527 | 0.633 | 0.997 | 0.906 | 1 | 1.01 | 1.01
4 | PC-3 [JPC-3] | 1.05 | 1.04 | 0.971 | 1.03 | 1.02 | 0.696 | 0.755 | – | 0.736 | 0.739 | 1.23 | 1.31 | – | 1.2 | 1.14 | 0.449 | 0.429 | 0.401 | 0.433 | 0.447
5 | PC-14 | 0.822 | 0.948 | 0.863 | 0.962 | 0.989 | 0.81 | 0.955 | – | 0.755 | 0.685 | 0.254 | 0.33 | – | 0.269 | 0.307 | 0.316 | 0.284 | 0.259 | 0.416 | 0.288
6 | RERF-LC-KJ | 0.829 | 0.792 | 0.742 | 0.865 | 0.779 | 0.948 | 0.815 | 0.781 | 0.811 | 0.928 | 1.06 | 1.05 | 0.96 | 0.824 | 0.921 | 0.786 | 0.902 | 0.841 | 0.943 | 0.811
7 | SK-LU-1 | 1.03 | 1.37 | 0.968 | 0.948 | 0.977 | 0.475 | 0.58 | 0.623 | 0.4 | 0.451 | 0.605 | 0.559 | 0.488 | 0.437 | 0.38 | 0.905 | 0.918 | 1.02 | 0.79 | 1.01
8 | SK-MES-1 | 0.817 | 0.955 | 0.844 | 0.79 | 0.877 | 0.605 | 0.666 | 0.615 | 0.535 | 0.533 | 0.767 | 0.845 | 0.689 | 0.684 | 0.694 | 0.448 | 0.401 | 0.445 | 0.495 | 0.517
9 | SW 1573 | 0.759 | 0.792 | 0.677 | 0.622 | 0.736 | 0.57 | 0.631 | 0.588 | 0.516 | 0.436 | 0.455 | 0.516 | 0.447 | 0.488 | 0.384 | 1.09 | 0.985 | 1.08 | 1.4 | 1.01
